Where two headings read alike, the source gives them in different places.
How the values were obtained:
canine solid tumors = tested on: canine solid tumors; set-up: method as in PMID 12855656, PMID 22236194, PMID 34981886; settings: various types of canine solid tumors; cited from earlier work
malignant solid tumors = assay: Assessment of clinical outcome (tumor recurrence) in dogs with solid tumors on postoperative TOC; format: in vivo
Method: A prospective, randomized clinical trial was conducted on client-owned dogs diagnosed with malignant solid tumors between May 2022 and October 2023 at the Konkuk University Animal Cancer Center. TOC (Palladia®, Zoetis, Parsippany, NJ, USA) was administered orally at a dose range of 2.4–2.9 mg/kg every other day with or without food. Medical data for the dogs were collected, including signalment (age, sex, and neuter status); physical examination, blood pressure, hematology, biochemistry, urinalysis, diagnostic imaging (radiography, ultrasound, and computed tomography), and histopathological findings (surgical margin and mitotic count); TOC dose and duration of TOC treatment; and AEs and clinical outcomes. Dogs were excluded from this study if distant metastases were confirmed at the time of diagnosis or if the TOC treatment duration was less than 1 month, which is insufficient for evaluating its effect. This clinical trial was approved by the Institutional Animal Care and Use Committee of the Konkuk University (approval no. KU 23046).
Rechecks were performed every 1–2 months after the initiation of TOC treatment through physical examination, three-view thoracic radiography, and abdominal ultrasonography.

[1] = cited from earlier work
[2] = set-up: method as in PMID 12855656; settings: preclinical trials in rodent models; cited from earlier work
[3] = set-up: method as in PMID 24079884; settings: cited from earlier work
[4] = cited from earlier work; remark: listed apart in the source
[5] = Assessment of adverse events (VCOG-CTCAE v2.0) in dogs treated with TOC; format: in vivo
Method: AEs were evaluated before TOC treatment (at baseline) and 1, 2, and 4 weeks thereafter, followed by regular check-ups every 1–2 months. At each follow-up, a physical examination, blood pressure measurement, hematological and biochemical tests, and urinalysis were performed. AEs were graded according to the Veterinary Cooperative Oncology Group Common Terminology Criteria for AEs (v2.0). Concomitant medications, including famotidine, omeprazole, silymarin, ursodeoxycholic acid, mirtazapine, and tramadol, were allowed to prevent or treat drug-related AEs. TOC was permanently discontinued upon request of the owner or if unacceptable AEs occurred or disease progression was identified.

[6] = Plasma toceranib concentration (LC–MS/MS) in dogs with solid tumors treated with TOC; format: in vivo; settings: for concentration at 48 h / Cmax: plasma; for concentration at 48 h: oral; for Cmax: po
Method: A prospective, randomized clinical trial was conducted on client-owned dogs diagnosed with malignant solid tumors between May 2022 and October 2023 at the Konkuk University Animal Cancer Center. TOC ([…], NJ, USA) was administered orally at a dose range of 2.4-2.9 mg/kg every other day with or without food. Medical data for the dogs were collected, including signalment (age, sex, and neuter status); physical examination, blood pressure, hematology, biochemistry, urinalysis, diagnostic imaging (radiography, ultrasound, and computed tomography), and histopathological findings (surgical margin and mitotic count); TOC dose and duration of TOC treatment; and AEs and clinical outcomes. Dogs were excluded from this study if distant metastases were confirmed at the time of diagnosis or if the TOC treatment duration was less than 1 month, which is insufficient for evaluating its effect. This clinical trial was approved by the Institutional Animal Care and Use Committee of the Konkuk University (approval no. KU 23046). Whole blood (1-2 mL) was obtained from the external jugular vein after initiation of postoperative TOC treatment. Blood samples were collected in ethylenediaminetetraacetic acid tubes 6 h (Cmax) and 48 h (Cmin) after administration; these time points were determined based on previous studies. Within 30 min of collection, the samples were centrifuged at 3000× g for 10 min at 4 °C. The plasma was separated, divided into cryovials, and stored at -80 °C until analysis. […] Plasma toceranib was quantitated via high-performance liquid chromatography with tandem mass spectrometry detection (LC-MS/MS). […] After thorough vortexing for 1 min, the mixture was centrifuged at 15,000× g for 10 min at 4 °C, and 2 μL of the supernatant was collected and injected into the LC-MS/MS system. The LC-MS/MS system comprised an ExionLCTM AD system (Sciex, Toronto, ON, Canada) coupled with a Triple QuadTM 5500+ mass system (Sciex). Data were acquired using Analyst 1.4.3. Chromatographic separation was performed using an XBridge C18 column (100 × 2.1 mm, 5 μm; Waters Corporation, Milford, MA, USA) maintained at 40 °C. An isocratic mobile phase comprising 0.1% formic acid in water and 0.1% formic acid in acetonitrile (30:70, v/v) was used at a flow rate 0.50 mL/min, with the total run time not exceeding 3 min. The autosampler was maintained at 15 °C. All measurements were conducted using a mass spectrometer operated in the positive electrospray ionization mode. The multiple reaction monitoring transitions were m/z 397.2 → 283.0 for toceranib and m/z 405.2 → 283.1 for the toceranib-d8 internal standard (IS). The other parameters were as follows: collision gas, curtain gas, ion source gas 1, and ion source gas 2 at 7, 35, 50, and 70 psi, respectively; dwell time, 200 ms; ion spray voltage and temperature, 4000 V and 600 °C, respectively; declustering potential, 80 V for toceranib and the IS; collision energy, 40 V for toceranib and the IS; entrance potential (EP), 12 V for toceranib and 8 V for IS; and collision exit potential, 16 V for toceranib and 18 V for the IS. Standard curves were generated using the peak area ratios of toceranib to the IS and 1/x^2 weighted linear regression. Toceranib concentrations were determined via interpolation across a range of 5-500 ng/mL. Continuous variables are expressed as the mean ± standard deviation. Interpatient variability is expressed as the coefficient of variation, calculated as standard deviation divided by the mean and expressed as a percentage. Normality was assessed using the Shapiro-Wilk test. Continuous variables were compared using Student's t-test or Mann-Whitney U test. Linear mixed models for repeated measures were used to compare plasma TOC concentrations over time. Data were analyzed using SPSS v26.0 (IBM Corp., Armonk, NY, USA). Differences were considered significant at p < 0.05.

[7] = set-up: method as in PMID 34512023, PMID 31782166; settings: patients with metastatic renal cell tumors; cited from earlier work

Cc1[nH]c(/C=C2\C(=O)Nc3ccc(F)cc32)c(C)c1C(=O)NCCN1CCCC1 [TOC, Toceranib phosphate]
clinical benefit (canine solid tumors): 50–90%
dogs that developed tumor recurrence (malignant solid tumors; three of the nine dogs with Cmax measured): 33.3%
dogs that developed local recurrence (malignant solid tumors; three out of ten dogs, follow-up period): 30%
biological activity (dogs responding) ([1]; 11/16 dogs treated with 2.5 mg/kg TOC every other day): 69%
biological activity (dogs responding) ([1]; 12/20 dogs treated with TOC at the MTD): 60%
maximum tolerated dose (MTD) ([1]; every other day, dogs): 3.25 mg/kg
therapeutic range (plasma concentration) [2]: 50 to 100 ng/mL
resulting Cmax ([3]; TOC administered within 2.4 to 2.9 mg/kg): > 0.04 µg/mL
dogs in which Cmax was reached at 6 or 8 h post-administration [3]: 69%
plasma concentration at 6 or 8 h as share of actual Cmax in the remaining dogs [3]: > 75%
Cmax level associated with clinical efficacy ([4]; dogs with mast cell tumors receiving TOC at the MTD): at least 40 ng/mL
elimination half-life ([4]; in dogs): approximately 17 h
interpatient coefficient of variation for Cmax ([4]; previous PK study): 35–40%
interpatient coefficient of variation for Cmin ([4]; previous PK study): 30–61%
dogs that experienced AEs ([5]; five of the nine dogs in which Cmax was measured): 55.6%
dogs that experienced AEs ([5]; five out of ten dogs, follow-up period): 50%
dogs that experienced AEs ([5]; two of the four dogs in which Cmin was measured): 50%
mean interpatient variability in dose-normalized Cmax (coefficient of variation) ([6]; dog, in vivo): 29%
mean interpatient variability in dose-normalized Cmin (coefficient of variation) ([6]; dog, in vivo, 48 h): 61%
concentration at 48 h ([6]; dog, dogs with AEs, read-out: mean Cmin): 0.0135 ± 0.0121 µg/mL
concentration at 48 h ([6]; dog, dogs without AEs, read-out: mean Cmin): 0.0149 ± 0.0113 µg/mL
concentration at 48 h ([6]; dog, four dogs, mean ± SD, read-out: overall mean Cmin): 0.0142 ± 0.00957 µg/mL
Cmax ([6]; dog, dogs with AEs, read-out: mean Cmax at week 1): 0.0893 ± 0.0263 µg/mL
Cmax ([6]; dog, dogs with AEs, read-out: mean Cmax on average): 0.0862 ± 0.0286 µg/mL
Cmax ([6]; dog, dogs with tumor recurrence, read-out: mean Cmax at week 1): 0.0746 ± 0.0499 µg/mL
Cmax ([6]; dog, dogs with tumor recurrence, read-out: mean Cmax on average): 0.0827 ± 0.0426 µg/mL
Cmax ([6]; dog, dogs without AEs, read-out: mean Cmax at week 1): 0.0599 ± 0.0202 µg/mL
Cmax ([6]; dog, dogs without AEs, read-out: mean Cmax on average): 0.0641 ± 0.00858 µg/mL
Cmax ([6]; dog, dogs without tumor recurrence, read-out: mean Cmax at week 1): 0.077 ± 0.0137 µg/mL
Cmax ([6]; dog, dogs without tumor recurrence, read-out: mean Cmax on average): 0.0732 ± 0.0123 µg/mL
Cmax ([6]; dog, individual dogs (case no. in c0), plasma 6 h after oral administration, week 12, read-out: Cmax Week 12): 0.0474 µg/mL
Cmax ([6]; dog, nine dogs, average of weeks, mean ± SD, read-out: overall mean Cmax on average): 0.0764 ± 0.0225 µg/mL
Cmax ([6]; dog, nine dogs, mean ± SD, read-out: overall mean Cmax at week 1): 0.0762 ± 0.0272 µg/mL
time to steady-state plasma concentration ([6]; dogs, oral dosing every other day): ≤ 1 week

CCN(CC)CCNC(=O)c1c(C)[nH]c(/C=C2\C(=O)Nc3ccc(F)cc32)c1C [sunitinib]
interpatient PK variability [7]: 34–60%
